The values that follow come from US11191765B2, “Heterocyclic compounds for the inhibition of PASK” (BioEnergenix LLC, priority 2012, dated 2021).

In one test the target is PASK (Invitrogen) (Homo sapiens (Human), UniProt Q96RG2). As to the kind of experiment: PAS Kinase FRET Assay. Format: biochemical. Conditions: TR-FRET (665 nm/615 nm), Ulight-peptide substrate, 2 hours at 25° C.; read-out: IC50 Kinase Domain. From the text:
The aim of the FRET assay is to determine the inhibition potential of test compounds on targeted kinase. This assay platform provides a homogenous screening method for measuring kinase activity by quantitating the amount of phospho-substrate in solution following a kinase reaction.
In the presence of kinase and ATP, the Ulight-peptide is phosphorylated and captured by an anti-phospho-substrate antibody, which brings the Eu chelate donor and Ulight acceptor dyes into close proximity. Upon excitation at 340 nm, the Eu chelate transfers its energy to the Ulight dye, resulting in a fluorescent light emission at 665 nm.
Titration of kinase at 1 mM ATP was achieved via the following protocol. After making serial three-fold dilutions of PASK (Invitrogen) in reaction buffer across the plate; 5 μl of kinase dilution and 5 μl substrate/ATP mix were added to the wells of the white Optiplate-384 (PerkinElmer). The contents of the plate were and incubated at RT for 1 h. The reaction was stopped by adding 5 μl of stop solution to each test well followed by mixing and incubation at RT for 10 minutes. 5 μl of detection mix (detection antibody diluted in detection buffer) was added; the contents of the plate were mixed and then incubated in the dark for 1 hour at RT. The signal was recorded at TR-FRET mode (665 nm/615 nm). The results were graphed to calculate the EC50.
Titration of ATP at the EC50 concentration of kinase to determine ATP Km,app. was performed using the following method. After making serial dilutions of ATP (Invitrogen), 5 μl of ATP dilution and 5 μl substrate/kinase mix were added to the wells of the white Optiplate-384 (PerkinElmer). The contents of the plate were and incubated at RT for 1 h. The reaction was stopped by adding 5 μl of stop solution to each test well followed by mixing and incubation at RT for 10 minutes. 5 μl of detection mix (detection antibody diluted in detection buffer) was added; the contents of the plate were mixed and then incubated in the dark for 1 hour at RT. The signal was recorded at TR-FRET mode (665 nm/615 nm). The results were graphed to calculate the EC50 as the ATP Km,app.
Compound screening was done via the following method. 10 mM stock solution of test compound in DMSO was prepared by dissolving test compound in DMSO at RT for 1 hour, and then sonicating at 100% output for 8 minutes. If compound is not soluble under this condition, it was diluted to 3 mM. Kinase reaction buffer was prepared containing 10 mM MgCl2, 50 mM HEPES, 1 mM EGTA, 0.01% TWEEN-20, 2 mM DTT. Serial dilutions of the test compounds were prepared at 4×final assay concentrations using Freedom EVO200® dispensing system as follows: 12×10^−5 M, 4×10^−5 M, 1.33×10^−5 M, 4.44×10^−6 M, 1.48×10^−6 M, 4.92×10^−7 M, 1.65×10^−7 M, 5.48×10^−7 M, 1.82×10^−8 M, 6.09×10^−9, 2.03×10^−9 M. Test compounds (2.5 μl at 4×the final assay concentration) was added to wells using Freedom EVO200® dispensing system. As a positive control, 2.5 μl of positive compound was added to assay wells, and 2.5 μl of DMSO to assay wells as vehicle control. Kinase solution was prepared in reaction buffer at 2×final assay concentration. Kinase solution (5 μl) was added to each well of the assay plate. The substrate and ATP solution was prepared in kinase reaction buffer at 4×final assay concentration. The kinase reaction was started by adding 2.5 μl of substrate+ATP mix solution to each well of the assay plate. The plate is mixed on a plate shaker; then covered and allowed to react for 2 hours in the dark at 25° C. without shaking. The reaction was stopped by adding 5 μl of stop solution to each test well followed by mixing and incubation at RT for 10 minutes in the dark. 5 μl of detection mix (detection antibody diluted in detection buffer) was added; the contents of the plate were mixed and then incubated in the dark for 1 hour at RT. The signal was recorded at TR-FRET mode (665 nm/615 nm).
Background: TR-FRET usually uses a lanthanide donor and a delayed reading to cut background.

A further test addresses PASK (UniProt #Q96RG2; human recombinant N-terminal GST tagged construct, residues 879-1323) (Homo sapiens (Human), UniProt Q96RG2). As to the kind of experiment: PASK ATP Radiochemical Assay. Conditions: radiochemical 33P-ATP assay, Myelin Basic Protein substrate, 120 min at room temperature; read-out: IC50 Kinase Domain. Type of test: biochemical. The method, then: Biochemical Assay for hPASK Activity
PASK ATP Radiochemical Assay
Purified PASK (UniProt #Q96RG2; human recombinant N-terminal GST tagged construct, residues 879-1323) from insect cells (final concentration 5 nM) is added to freshly prepared Base Reaction Buffer containing 20 mM HEPES (pH 7.5), 10 mM MgCl2, 1 mM EGTA, 0.02% Brij35, 0.02 mg/ml BSA, 0.1 mM Na3VO4, 2 mM DTT, 1% DMSO and Myelin Basic Protein (20 μM final). Test compounds in DMSO are then added and the mixture, followed by delivery of ^33P-ATP (specific activity 0.01 μCi/μl final) to initiate the reaction. The kinase reaction is incubated for 120 min at room temperature. The entire reaction mixture is washed through onto a P81 Phosphocellulose paper and washed three times for 10 minutes in 75 mM phosphoric acid and once in methanol prior to drying and scintillation counting.

Sequence of PASK (Q96RG2 879-1323, change not shown): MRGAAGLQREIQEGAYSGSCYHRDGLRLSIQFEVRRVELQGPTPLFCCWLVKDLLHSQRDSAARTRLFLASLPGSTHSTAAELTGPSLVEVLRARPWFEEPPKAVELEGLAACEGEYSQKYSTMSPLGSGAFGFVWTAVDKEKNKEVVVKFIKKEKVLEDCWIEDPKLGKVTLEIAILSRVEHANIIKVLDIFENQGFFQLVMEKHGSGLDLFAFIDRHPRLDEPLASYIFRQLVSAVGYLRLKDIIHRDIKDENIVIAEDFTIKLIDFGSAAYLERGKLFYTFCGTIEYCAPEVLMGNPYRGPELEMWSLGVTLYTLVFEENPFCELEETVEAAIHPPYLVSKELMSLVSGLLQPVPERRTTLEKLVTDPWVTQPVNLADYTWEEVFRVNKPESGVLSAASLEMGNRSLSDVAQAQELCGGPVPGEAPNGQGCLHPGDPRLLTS
Sequence of PASK (Invitrogen) (Q96RG2 999-1251): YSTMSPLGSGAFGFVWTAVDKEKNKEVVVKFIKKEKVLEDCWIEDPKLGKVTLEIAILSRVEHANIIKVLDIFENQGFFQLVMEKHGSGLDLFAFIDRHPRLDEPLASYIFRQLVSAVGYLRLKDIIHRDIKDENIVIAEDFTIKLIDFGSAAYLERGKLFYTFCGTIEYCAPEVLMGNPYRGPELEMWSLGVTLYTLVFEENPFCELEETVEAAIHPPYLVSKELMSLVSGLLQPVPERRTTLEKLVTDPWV

Broadly, the IC50 is the concentration that gives 50% inhibition. In the case of `O=c1cc(-c2ccc3c(c2)OCO3)[nH]c2nc(-c3ccc(Cl)cc3)nn12` [Example 15, 5-(Benzo[d][1,3]dioxol-5-yl)-2-(4-chlorophenyl)-[1,2,4]triazolo[1,5-a]pyrimidin-7(4H)-one], the IC50 on PASK (Invitrogen) and on PASK was at most 10 µM in each case.

Take `COc1cc(-c2cc(=O)n3nc(-c4ccc(Cl)cc4)nc3[nH]2)ccc1Cl` [Example 8, 5-(4-Chloro-3-methoxyphenyl)-2-(4-chlorophenyl)-[1,2,4]triazolo[1,5-a]pyrimidin-7(4H)-one]: the IC50 at PASK (Invitrogen) and on PASK was at most 10 µM throughout.

Consider `O=c1cc(-c2ccccc2)[nH]c2nc(-c3ccccc3Cl)nn12` [Example 36, 2-(2-Chlorophenyl)-5-phenyl-[1,2,4]triazolo[1,5-a]pyrimidin-7(4H)-one], for which, at PASK, the IC50 was at most 10 µM.

As for `COc1ccccc1-c1cc(=O)n2nc(-c3ccccc3)nc2[nH]1` [Example 30, 5-(2-Methoxyphenyl)-2-phenyl-[1,2,4]triazolo[1,5-a]pyrimidin-7(4H)-one], the IC50 on PASK was at most 10 µM.

For the compound `COc1ccc(-c2cc(=O)n3nc(-c4ccc(Cl)cc4)nc3[nH]2)cc1` [Example 34, 2-(4-Chlorophenyl)-5-(4-methoxyphenyl)-[1,2,4]triazolo[1,5-a]pyrimidin-7(4H)-one], the IC50 on PASK (Invitrogen) and at PASK was at most 10 µM each time.

On to `COc1cccc(-c2cc(=O)n3nc(-c4ccccc4)nc3[nH]2)c1` [Example 33, 5-(3-Methoxyphenyl)-2-phenyl-[1,2,4]triazolo[1,5-a]pyrimidin-7(4H)-one], for which the half-maximal inhibitory concentration (IC50) at PASK was at most 10 µM.

On to `COc1ccc(-c2cc(=O)n3ncnc3[nH]2)cc1OC` [Example 37, 5-(3,4-Dimethoxyphenyl)-[1,2,4]triazolo[1,5-a]pyrimidin-7(4H)-one], for which the IC50 on PASK was at most 10 µM.

Turning to `COc1ccc(-c2nc3[nH]c(-c4ccccc4)cc(=O)n3n2)cc1` [Example 35, 2-(4-Methoxyphenyl)-5-phenyl-[1,2,4]triazolo[1,5-a]pyrimidin-7(4H)-one], the IC50 at PASK was at most 10 µM.

With `COc1ccc(-c2cc(=O)n3ncnc3[nH]2)cc1` [Example 38, 5-(4-Methoxyphenyl)-[1,2,4]triazolo[1,5-a]pyrimidin-7(4H)-one], the IC50 at PASK was at most 10 µM.

Turning to `COc1ccc(-c2cc(=O)n3nc(-c4ccccc4)nc3[nH]2)cc1` [Example 32, 5-(4-Methoxyphenyl)-2-phenyl-[1,2,4]triazolo[1,5-a]pyrimidin-7(4H)-one], at PASK, the IC50 was at most 10 µM.

For `O=c1cc(-c2ccccc2)[nH]c2nc(-c3ccccc3)nn12` [Example 31, 2,5-Diphenyl-[1,2,4]triazolo[1,5-a]pyrimidin-7(4H)-one], on PASK, the IC50 was at most 10 µM.

For `CCn1ncc2cc(-c3cc(=O)n4nc(-c5ccccc5Cl)nc4[nH]3)ccc21` [Example 25, 2-(2-chlorophenyl)-5-(1-ethyl-1H-indazol-5-yl)-[1,2,4]triazolo[1,5-a]pyrimidin-7(4H)-one], the IC50 on PASK (Invitrogen) was at most 10 µM.

Regarding `O=c1cc(-c2ccc3[nH]ncc3c2)[nH]c2nc(-c3cccc(Cl)c3)nn12` [Example 12, 2-(3-Chlorophenyl)-5-(1H-indazol-5-yl)-[1,2,4]triazolo[1,5-a]pyrimidin-7(4H)-one], the IC50 on PASK (Invitrogen) was at most 10 µM.

For `O=c1cc(-c2ccc3[nH]ncc3c2)[nH]c2nc(-c3ccc(F)cc3)nn12` [Example 20, 2-(4-Fluorophenyl)-5-(1H-indazol-5-yl)-[1,2,4]triazolo[1,5-a]pyrimidin-7(4H)-one], the IC50 at PASK (Invitrogen) was at most 10 µM.
